Results on 2 compounds are retold here after patent publication US11260057B2, “Combination comprising palbociclib and 6-(2,4-dichlorophenyl)-5-[4-[(3S)-1-(3-fluoropropyl)pyrrolidin-3-yl]oxyphenyl]-8,9-dihydro-7H-benzo[7] annulene-2-carboxylic acid and its use for the treatment of cancer” (SANOFI, priority 2017, dated 2022).

Data set [1] concerns MCF7-Y537S human breast cancer cell line xenograft. Put plainly: Anti-tumor efficacy against subcutaneous MCF7-Y537S human breast cancer cell line xenograft in female nude mice. The class given is in vivo. The arrangement: key to Biological Interpretation: Active: ΔT/ΔC≤40% is considered as therapeutically active; Very active: ΔT/ΔC<0% is considered as tumor regression (very active); Inactive: ΔT/ΔC>40% is considered as therapeutically inactive. The settings on record: for Tumor volume changes from baseline: Median: compound (1) 5 mg/kg BID, palbociclib 100 mg/kg QD, PO; for Biological Interpretation: based on ΔT/ΔC at day 51; for Biological Interpretation / ΔT/ΔC in % at day 51 / Regressions Complete / Regressions Partial: compound (1) 5 mg/kg PO BID, palbociclib 100 mg/kg PO QD; for ΔT/ΔC in % at day 51: days 22 to 51; for Regressions Complete: mice with complete regression/evaluable mice; for Regressions Complete / Regressions Partial: 30 days; for Regressions Partial: mice with partial regression/evaluable mice. On the procedure: In the present study, the anti-tumor efficacy of 6-(2,4-dichlorophenyl)-5-[4-[(3S)-1-(3-fluoropropyl)pyrrolidin-3-yl]oxyphenyl]-8,9-dihydro-7H-benzo[7]annulene-2-carboxylic acid (“compound (1)”), combined with the cyclin-dependent kinase 4 (CDK4) inhibitor palbociclib, was investigated after 30 days treatment against a subcutaneous MCF7-Y537S human breast cancer cell line xenograft in female nude mice.
The treated groups included compound (1) at 5 mg/kg alone, palbociclib at 100 mg/kg alone, and the combination of compound (1) and palbociclib at the same dose and regime.
Compound (1) was orally dosed twice a day (BID) and palbociclib was orally dosed once a day (QD) for 30 days. Anti-tumor efficacy was evaluated by tumor volume measurement.
Female athymic nude mice were obtained from Harlan (Indianapolis, Ind., USA). Animals were allowed to acclimate for at least four days before the study enrollment. Mice were 12 to 13 weeks old and weighed between 20.2 and 27.3 grams at the beginning of the treatments. These animals were housed under conditions outlined in the NIH Guide for Care and Use of Laboratory Animals in compliance with the USDA Laboratory Animal Welfare Act.
Parental MCF7 cells were obtained from the American Type Culture Collection (ATCC® HTB-22™). MCF7-Y537S (ESR1) cell line was MCF7 cells expressing the ER.Y537S variant that was generated by Sanofi Biology Discovery Group. Y537S mutation was introduced in ESR1 construct (GenBank NM_000125.3) by site directed mutagenesis (Toy W. et al., Cancer Discovery, 2017, 7, 277-287). The construct was transfected in MCF7 cells which were selected for their growth in absence of estradiol. MCF-Y537S is an ESR1 mutation that confers estrogen-independent activity to ERα (Estrogen Receptor alpha) and contributes to endocrine resistant disease (Robinson D. R. et al., Nat Genet., 2013, 45 (12), 1446-1451). The cells were grown in Eagle's Minimum Essential Medium (EMEM) supplemented with 10% fetal bovine serum (FBS), human Insulin, in 5% CO2 at 37° C. The cells were harvested in 0.25% Trypsin EDTA and washed by Dulbecco's Phosphate Buffered Saline (DPBS) and re-suspended in DPBS with 50% matrigel (Becton Dickinson catalog No. 356234, lot No. 32277). The cells (20×10^6 cells/per mouse) were subcutaneously (SC) implanted into the right flank of female nude mice.
When the MCF7-Y537S tumors were established, the tumors were reserved as tumor stocks for fragment implantation. The tumors were serially propagated through fragment tissue transplantation subcutaneously. The fragment tumor tissues were subcutaneously implanted into the right flank of female nude mice. 50 mice were assigned in this experiment.
Compound (1) and palbociclib (commercially available, marketed under the tradename Ibrance®) were formulated as follows: […]
Compound (1) was prepared in Vehicle A, then Solutol HS15 (purchased from Sigma) was added to the final concentration 5%, and the solution was left under stirring for an hour for complete dissolution. After that, vehicle B was added. The final pH was 5.5.
Palbociclib was prepared in Vehicle A, then Solutol HS15 was added to the final concentration 5%, and the solution was left under stirring for an hour for complete dissolution. After that, vehicle B was added. The final pH was 5.5.
The animals required for experiment (plus extra) were pooled and implanted with MCF7-Y537S tumor fragment tissues on day 0. On day 21 post implantation, the mice were pooled and randomly distributed to the treatment and control groups (10 mice per group), where median tumor volumes for each group ranged from 202.5 to 211.5 mm^3. Treatments of compound (1) and palbociclib were initiated on day 22. Compound (1) was orally administered at 5 mg/kg BID (at least 5 hours apart) and palbociclib was orally administered at 100 mg/kg QD, for 30 days. Animal body weight was assessed daily.
The dosages are expressed in mg/kg and based on daily body weight per animal. Vehicle treated animals were used as controls. […]

The nature of data set [2]: Tolerability (body weight change, deaths) in the MCF7-Y537S xenograft study in nude mice. Format: in vivo. Conditions: compound (1) 5 mg/kg PO BID, palbociclib 100 mg/kg PO QD; for Average body weight change in % per group at nadir: days 22 to 51 (30 days); for day of nadir (of average body weight change): day post implantation, days 22 to 51; for Unscheduled death (Day of death): dead/total mice, footnote: non-drug related death or terminations, 30 days. On the procedure: The animals required for experiment (plus extra) were pooled and implanted with MCF7-Y537S tumor fragment tissues on day 0. […] Animal body weight was assessed daily.
The dosages are expressed in mg/kg and based on daily body weight per animal. Vehicle treated animals were used as controls. Mice were checked daily and adverse clinical reactions noted. Individual mice were weighed daily until the end of the experiment. Mice would be euthanized when morbid or weight loss ≥20% was observed. Tumors were measured with a caliper twice weekly until final sacrifice. When a tumor size reached approximately 2000 mm^3 or when there are animal health issues (40% area of a tumor ulcerated), animals would be euthanized and date of death recorded. Solid tumor volumes were estimated from two dimensional tumor measurements and calculated according to the following equation: […]
Animal body weight included the tumor weight.

With `O=C(O)c1ccc2c(c1)CCCC(c1ccc(Cl)cc1Cl)=C2c1ccc(O[C@H]2CCN(CCCF)C2)cc1` [Compound (1), 6-(2,4-dichlorophenyl)-5-[4-[(3S)-1-(3-fluoropropyl)pyrrolidin-3-yl]oxyphenyl]-8,9-dihydro-7H-benzo[7]annulene-2-carboxylic acid], the “Tumor volume changes from baseline: Median” value (shortened to “Tumor volume changes”) was 114.0 mm^3 in data set [1] (Day 27); 171.5 mm^3 in data set [1] (Day 30); 270.5 mm^3 in data set [1] (Day 34); 336.0 mm^3 in data set [1] (Day 37); 440.0 mm^3 in data set [1] (Day 41); 498.5 mm^3 in data set [1] (Day 44). For the same compound, the entries for the “Tumor volume changes” value in data set [1] (Day 49) and in data set [1] (Day 51) were 727.5 mm^3 and 782.0 mm^3, respectively. Further, the “Biological Interpretation” value in data set [1] is on record as “Inactive”. Further, the “ΔT/ΔC in % at day 51” value in data set [1] is 59%. Also, the “Regressions Complete” value in data set [1] was 0/8. The “Regressions Partial” value in data set [1] was 0/8. For the same compound, in data set [2], the “Average body weight change in % per group at nadir” value is listed as −1.7%. Also, the “day of nadir (of average body weight change)” value in data set [2] stood at 22. Further, the “Unscheduled death (Day of death)” value in data set [2] is on record as 2/10.
As to `CC(=O)c1c(C)c2cnc(Nc3ccc(N4CCNCC4)cn3)nc2n(C2CCCC2)c1=O` [Palbociclib, 6-acetyl-8-cyclopentyl-5-methyl-2-[5-(1-piperazinyl)pyridine-2-ylamino]pyrido[2,3-d]pyrimidin-7(8H)-one], the “Tumor volume changes” value in data set [1] (Day 27) came out at 68.5 mm^3; in data set [1] (Day 30) it was 98.0 mm^3; in data set [1] (Day 34), 121.5 mm^3; in data set [1] (Day 37), 132.0 mm^3; in data set [1] (Day 41), 193.5 mm^3; in data set [1] (Day 44), 249.5 mm^3. For the same compound, the “Tumor volume changes” value in data set [1] (Day 49) turned out to be 298.5 mm^3; in data set [1] (Day 51), 363.5 mm^3. Moreover, in data set [1], the “Biological Interpretation” value is listed as “Active”. Moreover, the “ΔT/ΔC in % at day 51” value in data set [1] worked out at 27%. Moreover, in data set [1], the “Regressions Complete” value was 0/10. In data set [1], the “Regressions Partial” value is on record as 0/10. In addition, the “Average body weight change in % per group at nadir” value in data set [2] is reported as −2.0%. The “day of nadir (of average body weight change)” value in data set [2] is reported as 22. Moreover, the “Unscheduled death (Day of death)” value in data set [2] is recorded as 0/10.
